Experimental data taken from article PMC8473292 (Viruses, 2021).
Structures can show the parent of a compound that is named as a salt. Where two headings read alike, the source gives them in different places.

Experiments:
in vitro = conditions: African green monkey
rPEDV-NLuc = assay: microbe, parasite or virus in culture; assay type: cell-based, Porcine epidemic diarrhea virus (PEDV) YN150 strain; conditions: for IC50: Vero cells, rPEDV-NLuc MOI 0.01, 1 h pre-treatment, 1.25-10 μM, NLuc activity at 20 h post-infection; for SI: selective index from CC50 and IC50
PEDV-induced ROS = assay: Detection of PEDV-induced intracellular ROS production with DCFH-DA; assay type: cell-based; conditions: 10 μM, wild-type PEDV MOI 0.01, Vero cells, 16 h post-infection
wild-type PEDV = assay: Confirmation of anti-PEDV activity with wild-type PEDV by TCID50 in Vero cells; assay type: cell-based, Porcine epidemic diarrhea virus (PEDV); conditions: wild-type PEDV MOI 0.01, Vero cells, TCID50 and IFA; antioxidants 2.5, 5, 10 μM; NAC 50, 100, 200 μM
[1] = Porcine epidemic diarrhea virus, Vero

Molecule	CC50 (in vitro) [µM]	IC50 (rPEDV-NLuc; [1]) [µM]	SI (rPEDV-NLuc)	IC50 (rPEDV-NLuc; read-out: IC50) [µM]	CC50 (Vero cells; Vero cells, MTT assay) [µM]	further results
C[C@@H]1[C@H](O)[C@@H](C)/C=C/C=C/C=C/C=C/C=C/C=C/C=C/[C@H](O[C@@H]2O[C@H](C)[C@@H](O)[C@H](N)[C@@H]2O)C[C@@H]2O[C@](O)(C[C@@H](O)C[C@@H](O)[C@H](O)CC[C@@H](O)C[C@@H](O)CC(=O)O[C@H]1C)C[C@H](O)[C@H]2C(=O)O [Amphotericin B, reference compound]	> 100	2.91	>34.42			
Tannic acid			>22.89	4.37	> 100	
Tubeimoside I			17.76	4.21		CC50 (Vero cells): 74.8 µM
CC[C@]12C=CCN3CC[C@]4(C(=C(C(=O)OC)C1)Nc1ccccc14)[C@@H]32.Cl [Tabersonine hydrochloride]			19.23	4.3	82.6	
COc1cc(/C=C/c2ccc(O)c(O)c2)cc(OC)c1 [3′-Hydroxypterostilbene]			>23.29	4.29	> 100	
O=c1ccc2cc(O)c(O)cc2o1 [Esculetin]	> 100	5.97	>16.75			DCFH-DA fluorescence in PEDV-infected cells (fluorescence microscopy) (PEDV-induced ROS): only a few fluorescence signals were detected
C=CC(C)(C)c1cc(/C=C/C(=O)c2ccc(O)cc2)c(OC)cc1O [Licochalcone A]			>25	4	> 100	
CCc1c2c(nc3ccccc13)-c1cc3c(c(=O)n1C2)COC(=O)[C@]3(O)CC [7-Ethylcamptothecin]			>80	< 1.25	> 100	
Cc1cc(O)c2c(c1)C(=O)c1cc(O)cc(O)c1C2=O [Emodin]	> 100	2.1	>50			
COc1ccc2c(c1)[nH]c1c(C)nccc12 [Harmine hydrochloride]	> 100	1.33	>75.04			
COc1ccc2c(c1)[nH]c1c(C)nccc12 [Harmine]			>51.10			IC50 (rPEDV-NLuc): 1.96 µM
COc1cc(O)cc(O)c1C(=O)/C=C/c1ccccc1 [(E)-Cardamonin]			>46.44	2.15	> 100	
Cc1cc2c(C(C)C)c(O)c(O)c(C=O)c2c(O)c1-c1c(C)cc2c(C(C)C)c(O)c(O)c(C=O)c2c1O [gossypol-Acetic acid]	> 100	2.9	>30			
C=C1C(=O)[C@]23[C@H](O)[C@H]1CC[C@H]2[C@@]12CO[C@]3(O)[C@@H](O)[C@@H]1C(C)(C)CC[C@@H]2O [Oridonin]	35	3				
C=CC1=C(C)c2cc3[nH]c(cc4nc(cc5[nH]c(cc1n2)c(C)c5CCC(=O)O)C(CCC(=O)O)=C4C)c(C)c3C=C [Protoporphyrin IX]	> 100	< 1.25	>80			
O=C(/C=C/c1ccc(O)c(O)c1)OCCc1ccccc1 [Caffeic Acid Phenethyl Ester]	> 100	1.74	>57.63			DCFH-DA fluorescence in PEDV-infected cells (fluorescence microscopy) (PEDV-induced ROS): only a few fluorescence signals were detected
CC(Cc1ccc(O)c(O)c1)C(C)Cc1ccc(O)c(O)c1 (centres unmarked) [Nordihydroguaiaretic acid]			>19.99	5	> 100	DCFH-DA fluorescence in PEDV-infected cells (fluorescence microscopy) (PEDV-induced ROS): only a few fluorescence signals were detected
C=C(C)[C@@H]1CC[C@]2(C(=O)O)CC[C@]3(C)[C@H](CC[C@@H]4[C@@]5(C)CCC(=O)C(C)(C)[C@@H]5CC[C@]43C)[C@@H]12 [Betulonic acid]			>49.52	< 1.25	61.9	DCFH-DA fluorescence in PEDV-infected cells (fluorescence microscopy) (PEDV-induced ROS): only a few fluorescence signals were detected
C[C@H](CCC(=O)O)[C@H]1CC[C@H]2[C@@H]3CC[C@@H]4C[C@H](O)CC[C@]4(C)[C@H]3CC[C@]12C [Lithocholic acid]	> 100	2.37	>42.12			DCFH-DA fluorescence in PEDV-infected cells (fluorescence microscopy) (PEDV-induced ROS): only a few fluorescence signals were detected
CC(=O)N[C@@H](CS)C(=O)O [NAC, N-acetyl-L-cysteine]						inhibition of PEDV replication, dose dependence (wild-type PEDV): exhibited anti-PEDV activity in a dose-dependent manner
CC1=C(C(=O)OCCN(Cc2ccccc2)c2ccccc2)C(c2cccc([N+](=O)[O-])c2)C(P2(=O)OCC(C)(C)CO2)=C(C)N1 (centres unmarked) [Efonidipine, reference compound]	> 100	5.58	>17.93			
C[C@H]1[C@H](C)CC[C@]2(C(=O)O)CC[C@]3(C)C(=CC[C@@H]4[C@@]5(C)CCC(=O)C(C)(C)[C@@H]5CC[C@]43C)[C@H]12 [Ursonic acid]	41	2.13	19.23			DCFH-DA fluorescence in PEDV-infected cells (fluorescence microscopy) (PEDV-induced ROS): only a few fluorescence signals were detected
C[C@@]1(C(=O)O)CC[C@]2(C)CC[C@]3(C)C4=CC(=O)c5c(cc(O)c(O)c5C=O)[C@]4(C)CC[C@@]3(C)[C@@H]2C1 [Demethylzeylasteral]			16.27	2.37		CC50 (Vero cells): 38.6 µM
